Experimental data: patent publication US20050085556A1, “Detection of cholesterol ozonation products” (priority 2003, published 2005)
Entries after “also recorded” stand apart in the source; their conditions may differ.

Tests used:
[1] = system: J774.1 macrophages; experiment: Lipid-loading assay (foam cell formation); type: cell-based, murine; settings: LDL 100 μg/mL plus compound 20 μM, 72 h, oil red O stain
Method: Lipid-loading assay (foam cell formation). J774.1 macrophages were incubated in ATCC-recommended media containing 10% fetal bovine serum under a controlled atmosphere of 5 or 7% CO2 at 37° C., in 8-well chamber slides. […] At termination, cells were washed twice with PBS (pH 7.4). The cells were then fixed with 6% (v/v) paraformaldehyde in PBS for 30 minutes, rinsed with propylene glycol for 2 minutes and lipids were stained with 5 mg/ml Oil Red O for 8 minutes. The cells were counterstained with Harris' hematoxylin for 45 seconds, and background staining was removed with […] followed by washing once in PBS and once in tap water. Cover slips were mounted onto the glass slides using glycerol and the slide preparations were examined by light microscopy. The number of lipid-laden cells was scored out of a total of at least 100 cells counted in a single field in each slide, and expressed as a percentage of total cells. Photographs were taken at 100×magnification.

[2] = target: LDL (apoB-100) (Homo sapiens, UniProt P04114); experiment: Circular dichroism of LDL secondary structure; settings: LDL 100 μg/ml with compound 10 μM, PBS pH 7.4, 37° C.; for random coil of LDL protein: normal LDL 27±2%; for α helical structure of LDL protein: normal LDL ~40±2%
Chain of LDL (apoB-100) (P04114 28-4563): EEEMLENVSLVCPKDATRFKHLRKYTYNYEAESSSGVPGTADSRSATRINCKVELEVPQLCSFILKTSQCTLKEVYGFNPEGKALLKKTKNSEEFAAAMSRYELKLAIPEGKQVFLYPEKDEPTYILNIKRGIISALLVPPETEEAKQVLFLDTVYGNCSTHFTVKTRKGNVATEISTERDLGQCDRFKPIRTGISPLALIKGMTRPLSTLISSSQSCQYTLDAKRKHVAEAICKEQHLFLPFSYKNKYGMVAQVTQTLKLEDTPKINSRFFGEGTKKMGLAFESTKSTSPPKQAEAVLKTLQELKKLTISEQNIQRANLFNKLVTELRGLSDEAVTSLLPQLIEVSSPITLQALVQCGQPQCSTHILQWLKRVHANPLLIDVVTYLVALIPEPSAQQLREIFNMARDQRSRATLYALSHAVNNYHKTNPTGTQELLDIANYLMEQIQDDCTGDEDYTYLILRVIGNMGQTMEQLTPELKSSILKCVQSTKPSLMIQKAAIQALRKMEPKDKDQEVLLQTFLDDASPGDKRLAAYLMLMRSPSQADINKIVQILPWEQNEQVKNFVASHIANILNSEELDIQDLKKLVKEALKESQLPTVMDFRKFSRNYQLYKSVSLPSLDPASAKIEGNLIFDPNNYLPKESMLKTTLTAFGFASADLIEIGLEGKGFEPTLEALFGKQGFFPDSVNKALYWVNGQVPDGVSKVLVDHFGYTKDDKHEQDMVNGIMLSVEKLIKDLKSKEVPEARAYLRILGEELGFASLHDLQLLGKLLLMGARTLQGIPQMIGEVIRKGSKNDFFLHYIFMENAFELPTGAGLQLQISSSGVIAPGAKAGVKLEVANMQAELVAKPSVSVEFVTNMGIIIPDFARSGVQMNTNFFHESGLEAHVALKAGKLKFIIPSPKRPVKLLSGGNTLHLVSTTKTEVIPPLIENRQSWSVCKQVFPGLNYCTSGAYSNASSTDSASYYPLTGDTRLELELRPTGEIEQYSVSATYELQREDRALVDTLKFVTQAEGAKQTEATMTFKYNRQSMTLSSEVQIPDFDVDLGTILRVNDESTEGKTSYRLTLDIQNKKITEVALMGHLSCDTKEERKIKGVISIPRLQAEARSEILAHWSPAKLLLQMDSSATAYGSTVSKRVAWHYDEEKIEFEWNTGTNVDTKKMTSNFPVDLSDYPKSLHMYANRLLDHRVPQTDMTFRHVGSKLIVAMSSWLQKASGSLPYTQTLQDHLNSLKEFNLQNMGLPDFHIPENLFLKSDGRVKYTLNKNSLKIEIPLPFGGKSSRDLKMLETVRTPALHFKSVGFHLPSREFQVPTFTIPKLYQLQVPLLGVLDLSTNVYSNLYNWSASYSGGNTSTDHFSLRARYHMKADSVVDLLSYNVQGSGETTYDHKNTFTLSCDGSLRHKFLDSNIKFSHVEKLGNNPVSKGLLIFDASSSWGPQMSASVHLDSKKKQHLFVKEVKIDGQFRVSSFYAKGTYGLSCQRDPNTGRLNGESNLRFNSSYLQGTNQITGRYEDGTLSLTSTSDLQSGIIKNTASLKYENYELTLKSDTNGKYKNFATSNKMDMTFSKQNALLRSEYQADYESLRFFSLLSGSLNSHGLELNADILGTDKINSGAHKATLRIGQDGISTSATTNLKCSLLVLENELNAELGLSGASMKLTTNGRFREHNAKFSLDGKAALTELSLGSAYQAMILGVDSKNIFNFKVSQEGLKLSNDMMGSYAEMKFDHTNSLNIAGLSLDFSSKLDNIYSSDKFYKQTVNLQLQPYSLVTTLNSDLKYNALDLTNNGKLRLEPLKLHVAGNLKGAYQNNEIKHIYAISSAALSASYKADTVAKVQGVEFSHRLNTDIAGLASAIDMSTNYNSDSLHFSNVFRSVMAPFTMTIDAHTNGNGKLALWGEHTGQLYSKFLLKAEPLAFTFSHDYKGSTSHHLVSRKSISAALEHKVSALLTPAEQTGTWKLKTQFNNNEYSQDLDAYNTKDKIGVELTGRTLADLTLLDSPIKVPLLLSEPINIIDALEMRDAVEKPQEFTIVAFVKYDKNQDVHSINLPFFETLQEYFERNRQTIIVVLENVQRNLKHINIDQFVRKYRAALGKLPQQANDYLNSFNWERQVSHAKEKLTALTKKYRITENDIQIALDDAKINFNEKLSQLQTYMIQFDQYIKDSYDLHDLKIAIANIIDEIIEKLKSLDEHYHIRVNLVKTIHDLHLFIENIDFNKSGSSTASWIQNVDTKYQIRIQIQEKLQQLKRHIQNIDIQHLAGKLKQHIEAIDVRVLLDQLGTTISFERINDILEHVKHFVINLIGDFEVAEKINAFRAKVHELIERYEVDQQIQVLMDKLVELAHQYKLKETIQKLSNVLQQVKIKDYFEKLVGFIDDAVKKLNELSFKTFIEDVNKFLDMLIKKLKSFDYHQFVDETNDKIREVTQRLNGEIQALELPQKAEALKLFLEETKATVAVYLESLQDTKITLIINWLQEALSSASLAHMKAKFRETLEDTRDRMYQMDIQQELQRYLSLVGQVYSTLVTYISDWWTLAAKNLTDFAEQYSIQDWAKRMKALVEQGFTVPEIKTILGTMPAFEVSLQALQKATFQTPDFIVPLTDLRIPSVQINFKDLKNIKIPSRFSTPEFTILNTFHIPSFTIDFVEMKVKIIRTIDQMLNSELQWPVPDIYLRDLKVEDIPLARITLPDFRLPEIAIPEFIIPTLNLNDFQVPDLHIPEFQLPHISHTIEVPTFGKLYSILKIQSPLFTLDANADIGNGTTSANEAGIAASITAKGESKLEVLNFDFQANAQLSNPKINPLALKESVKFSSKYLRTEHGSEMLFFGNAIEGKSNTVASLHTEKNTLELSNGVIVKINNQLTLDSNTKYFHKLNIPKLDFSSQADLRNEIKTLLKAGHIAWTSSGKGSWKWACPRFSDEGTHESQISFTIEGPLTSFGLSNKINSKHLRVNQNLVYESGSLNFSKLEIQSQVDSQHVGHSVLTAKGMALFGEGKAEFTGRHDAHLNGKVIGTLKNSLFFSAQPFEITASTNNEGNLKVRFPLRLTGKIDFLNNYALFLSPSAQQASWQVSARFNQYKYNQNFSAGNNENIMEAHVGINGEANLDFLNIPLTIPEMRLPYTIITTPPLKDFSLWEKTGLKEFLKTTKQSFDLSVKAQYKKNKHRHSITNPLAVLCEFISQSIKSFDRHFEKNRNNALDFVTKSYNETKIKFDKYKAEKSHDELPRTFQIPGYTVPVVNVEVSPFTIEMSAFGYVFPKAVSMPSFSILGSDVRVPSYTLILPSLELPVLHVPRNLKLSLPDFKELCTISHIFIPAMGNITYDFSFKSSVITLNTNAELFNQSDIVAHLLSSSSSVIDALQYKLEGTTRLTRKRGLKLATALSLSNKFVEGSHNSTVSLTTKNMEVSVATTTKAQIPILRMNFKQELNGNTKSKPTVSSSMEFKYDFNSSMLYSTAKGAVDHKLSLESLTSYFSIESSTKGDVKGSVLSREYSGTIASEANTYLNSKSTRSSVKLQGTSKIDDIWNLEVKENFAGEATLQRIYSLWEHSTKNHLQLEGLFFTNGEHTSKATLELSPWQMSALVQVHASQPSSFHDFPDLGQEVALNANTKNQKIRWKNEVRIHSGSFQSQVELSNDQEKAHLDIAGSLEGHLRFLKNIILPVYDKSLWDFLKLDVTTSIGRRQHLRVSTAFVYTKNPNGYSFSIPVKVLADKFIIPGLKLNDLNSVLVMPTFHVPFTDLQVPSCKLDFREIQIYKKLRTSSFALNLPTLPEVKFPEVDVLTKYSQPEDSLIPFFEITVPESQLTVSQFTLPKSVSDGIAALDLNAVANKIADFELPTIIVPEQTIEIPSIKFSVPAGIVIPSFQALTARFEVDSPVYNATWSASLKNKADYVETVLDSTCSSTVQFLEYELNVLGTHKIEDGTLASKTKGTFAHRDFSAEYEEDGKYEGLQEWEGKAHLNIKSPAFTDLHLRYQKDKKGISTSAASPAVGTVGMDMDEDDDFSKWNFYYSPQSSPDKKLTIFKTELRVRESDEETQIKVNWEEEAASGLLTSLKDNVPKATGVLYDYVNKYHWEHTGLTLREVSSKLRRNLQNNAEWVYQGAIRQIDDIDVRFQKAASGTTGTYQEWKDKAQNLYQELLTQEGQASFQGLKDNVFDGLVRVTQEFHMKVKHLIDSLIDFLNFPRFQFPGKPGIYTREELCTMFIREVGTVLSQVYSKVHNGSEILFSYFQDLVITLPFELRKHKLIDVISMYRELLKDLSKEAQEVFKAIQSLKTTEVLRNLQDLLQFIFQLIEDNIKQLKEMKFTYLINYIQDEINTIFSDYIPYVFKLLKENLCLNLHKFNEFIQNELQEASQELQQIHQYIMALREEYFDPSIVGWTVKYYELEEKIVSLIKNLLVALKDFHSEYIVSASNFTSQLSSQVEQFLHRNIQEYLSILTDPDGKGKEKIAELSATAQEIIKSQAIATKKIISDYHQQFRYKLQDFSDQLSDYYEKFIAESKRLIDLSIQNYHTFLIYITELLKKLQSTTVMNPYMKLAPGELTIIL
Method: Circular dichroism. […] Spectra were recorded in the peptidic range (200-260 nm). To increase the signal-to-noise ratio, multiple spectra (three) were averaged for each measurement.

Structure (SMILES) | lipid-loading of macrophages (foam cell formation) [1] | random coil of LDL protein [2] [%] | α helical structure of LDL protein [2] [%]
CC(C)CCC[C@@H](C)[C@H]1CCC2C(CC=O)C([C@@]3(C)CC[C@H](O)CC3=O)CC[C@@]21C (stereo partly drawn) [4a, 3β-Hydroxy-5-oxo-5,6-secocholestan-6-al] | macrophages began lipid-loading and foam cells began to appear; also recorded: induces lipid-loading of macrophages to produce foam cells | ~39±2 | ~23±5
CC(C)CCC[C@@H](C)[C@H]1CCC2C3C(CC[C@@]21C)[C@@]1(C)CC[C@H](O)C[C@@]1(O)[C@@H]3C=O (stereo partly drawn) [5a, 3β-Hydroxy-5β-hydroxy-B-norcholestane-6β-carboxaldehyde] | macrophages began lipid-loading and foam cells began to appear; also recorded: effect of ozonolysis product 4a upon macrophages was indistinguishable from the effect of ozonolysis product 5a | 32±4 | ~20±2
